Usually IC50 stands for the point on the concentration scale where inhibition reaches its midpoint.

The target of this assay is T1, DPP-IV (Homo sapiens, UniProt P27487).
T1 construct: Soluble human DPP-IV lacking the transmembrane anchor (Gly31-Pro766); Pre-Pro-alpha-mating factor leader (secretion fusion) (N, cleaved yes); made in house
T1 sequence (P27487 31-766): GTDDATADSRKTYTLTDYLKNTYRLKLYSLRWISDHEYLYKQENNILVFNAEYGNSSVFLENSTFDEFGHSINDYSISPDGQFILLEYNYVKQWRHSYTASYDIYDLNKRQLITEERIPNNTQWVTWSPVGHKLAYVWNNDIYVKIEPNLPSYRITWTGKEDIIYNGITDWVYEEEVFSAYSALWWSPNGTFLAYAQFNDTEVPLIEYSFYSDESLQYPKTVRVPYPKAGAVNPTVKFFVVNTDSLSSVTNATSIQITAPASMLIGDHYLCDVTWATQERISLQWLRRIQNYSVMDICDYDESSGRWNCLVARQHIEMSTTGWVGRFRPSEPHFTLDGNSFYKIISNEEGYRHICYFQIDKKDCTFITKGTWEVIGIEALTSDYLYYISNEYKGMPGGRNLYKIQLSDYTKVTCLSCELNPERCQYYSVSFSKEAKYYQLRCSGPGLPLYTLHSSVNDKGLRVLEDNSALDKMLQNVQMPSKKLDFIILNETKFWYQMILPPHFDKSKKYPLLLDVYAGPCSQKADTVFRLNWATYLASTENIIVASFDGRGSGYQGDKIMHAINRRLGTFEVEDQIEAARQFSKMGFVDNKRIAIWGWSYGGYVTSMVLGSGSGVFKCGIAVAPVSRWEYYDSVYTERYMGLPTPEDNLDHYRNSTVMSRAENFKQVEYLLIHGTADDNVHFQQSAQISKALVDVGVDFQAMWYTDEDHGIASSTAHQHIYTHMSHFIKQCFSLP
Nature of the assay: Continuous fluorimetric assay of inhibition of DPP-IV peptidase activity (cleavage of Gly-Pro-AMC). The class given is biochemical. The note with it: substrate Gly-Pro-AMC 16 μM, pH 7.4, 25° C., 1% DMSO. The protocol:
Inhibition of DPP-IV peptidase activity was monitored with a continuous fluorimetric assay. This assay is based on the cleavage of the substrate Gly-Pro-AMC (Bachem) by DPP-IV, releasing free AMC. The assay is carried out in 96-well microtiterplates. In a total volume of 100 μL, compounds are preincubated with […] DPP-IV employing a buffer containing 10 mM Hepes, 150 mM NaCl, 0.005% Tween 20 (pH 7.4). […] The final concentration of DMSO is 1%. The inhibitory potential of the compounds were determined.
Soluble human DPP-IV lacking the transmembrane anchor (Gly31-Pro766) was expressed in a recombinant YEAST-strain as Pre-Pro-alpha-mating fusion.
In the case of `N[C@@H](CCN1CCC[C@H]1CNS(=O)(=O)c1ccccc1)Cc1ccccc1F` [Example 25], the IC50 was under 100 nM.

`N[C@@H](CCN1Cc2ccccc2C[C@H]1C(=O)NC1CC1)Cc1ccccc1F` [Example 26] yielded a concentration for half-maximal inhibition (IC50) of 101 to 1000 nM.

Compound `N[C@@H](CCN1CCC[C@H]1CNC(=O)C1CC1)Cc1ccccc1F` [Example 27, Cyclopropanecarboxylic acid {1-[(3R)-amino-4-(2-fluoro-phenyl)-butyl]-pyrrolidin-(2S)-ylmethyl}-amide] registered an IC50 of under 100 nM.

As to `N[C@@H](CCN1Cc2ccccc2C[C@H]1CNC(=O)C1CC1)Cc1ccccc1F` [Example 28], the IC50 was in the range of 101 to 1000 nM.

As for `N[C@@H](CCN1CCC[C@H]1CNS(=O)(=O)C1CC1)Cc1ccccc1F` [Example 29], the half-maximal inhibitory concentration (IC50) is under 100 nM.

The compound `CS(=O)(=O)NC[C@@H]1CCCN1CC[C@H](N)Cc1ccccc1F` [Example 30] returned an IC50 of under 100 nM.

`N#Cc1cccc(S(=O)(=O)NC[C@@H]2CCCN2CC[C@H](N)Cc2ccccc2F)c1` [Example 31] displayed a half-maximal inhibitory concentration (IC50) of under 100 nM.

`N[C@@H](CCN1CCC[C@H]1CNS(=O)(=O)CC(F)(F)F)Cc1ccccc1F` [Example 33]: the IC50 was under 100 nM.

Compound `N[C@@H](CCN1CCOCC1CNS(=O)(=O)C1CC1)Cc1ccccc1F` (some centres unmarked) [Example 35] gave an IC50 of 101 to 1000 nM.

With `N[C@@H](CCN1CCC[C@H]1COCc1ccccc1)Cc1ccccc1F` [Example 44, (1R)-3-[(2S)-2-Benzyloxymethyl-pyrrolidin-1-yl]-1-(2-fluoro-benzyl)-propylamine], the IC50 lay within 101 to 1000 nM.

The compound `N[C@@H](CCN1CCC[C@H]1COc1cccc(F)c1)Cc1cccc(Cl)c1` [Example 45, (1R)-(3-Chloro-benzyl)-3-[(2S)-(3-fluoro-phenoxymethyl)-pyrrolidin-1-yl]-propylamine] yielded a half-inhibitory concentration (IC50) of under 100 nM.

As for `N[C@@H](CCN1CCC[C@H]1COc1cccc(F)c1)Cc1ccccc1F` [Example 46], the IC50 is under 100 nM.

On to `N[C@@H](CCN1Cc2ccccc2C[C@H]1COc1cccc(F)c1)Cc1ccccc1F` [Example 47], for which the 50% inhibitory concentration (IC50) lay within 101 to 1000 nM.

The compound `COC[C@@H]1CCCN1CC[C@H](N)Cc1ccccc1F` [Example 48] showed a 50% inhibitory concentration (IC50) of 101 to 1000 nM.

The values are drawn from patent US20080176838A1, “Dpp-IV Inhibitors” (SANTHERA PHARMACEUTICALS (DEUTSCHLAND) AG, priority 2004, published 2008).
